The record followed here is patent US12209096B2, “Compounds and compositions for inducing chondrogenesis” (NOVARTIS AG, priority 2017, dated 2025).

In this assay the test system is NHACs. Description: calcium flux assay. Type of assay: cell-based, human. The note with it: for Emax: read-out: (A) % Efficacy. As to the method:
NHACs were plated in 1536 Greiner plate at 2000 cells/well in 4 ul volume. 24 hours later, 4 ul of Calcium 5 dye solution (Hank's Balanced Salt/HEPES buffer containing 5 mM of Probenecid) was then added and incubated for 1 hour at room temperature. Fluorescence readings at excitation wavelength of 470-495 nm and emission wavelength of 515-575 nm were done using FLIPR high-throughput screening system (Molecular Devices, Sunnyvale, CA). The test compound was then added to each well at the indicated dose. Signal was measured prior compound dispense and after using a first interval of 1 second for 60 reads and second interval of 3 second for 20 reads. Data was analyzed using Molecular Devices ScreenWorks® Software.

The structures appear in SMILES notation. pEC50: −log10 of the molar value. Like-named read-outs stand apart in the source and are kept apart here.

For orientation: pEC50 means −log10 of the EC50, conventionally taken in molar units. Turning to `COc1ccc(NC(=O)[C@H]2[C@H]3O[C@H]([C@@H]4C[C@@H]43)[C@H]2c2ccc(C)nc2)cn1` [Example 3, (1R,2R,4S,5S,6R,7R)-N-(6-methoxypyridin-3-yl)-7-(6-methylpyridin-3-yl)-8-oxatricyclo[3.2.1.0^2,4]octane-6-carboxamide], where the note is “Homo sapiens”, the pEC50 was less than 4.30 and the Emax came out at 0%.

For `Cc1ccc([C@H]2[C@H]3O[C@H](C[C@H]3F)[C@H]2C(=O)Nc2ccc(Cl)c(Cl)c2)cn1` [Example 64, (1R,2S,3S,4R,5R)—N-(3,4-dichlorophenyl)-5-fluoro-3-(6-methylpyridin-3-yl)-7-oxabicyclo[2.2.1]heptane-2-carboxamide], under “Homo sapiens”, the pEC50 was 4.68 and the Emax is 253%.

Regarding `Cc1cc([C@H]2[C@H]3O[C@H]([C@H](O)[C@@H]3O)[C@@H]2C(=O)Nc2cnc(Cl)c(Cl)c2)ccn1` [Example 162, (1S,2R,3S,4R,5S,6R)—N-(5,6-dichloropyridin-3-yl)-5,6-dihydroxy-3-(2-methylpyridin-4-yl)-7-oxabicyclo[2.2.1]heptane-2-carboxamide], under “Homo sapiens”, the pEC50 was less than 4.30 and the Emax was determined as 25%.

As to `Cc1cc([C@H]2[C@H]3O[C@H](C[C@H]3F)[C@@H]2C(=O)Nc2ccc(Cl)c(Cl)c2)ccn1` (single isomer, unassigned) [Example 92], where the note is “Homo sapiens”, the pEC50 was less than 4.30 and the Emax stood at 57%.

For `CN(C)c1ncc([C@H]2[C@H]3O[C@H](C[C@@H]3O)[C@@H]2C(=O)Nc2ccc(Cl)c(Cl)c2)cn1` [Example 144, (1R,2R,3S,4R,5S)—N-(3,4-dichlorophenyl)-3-(2-(dimethylamino)pyrimidin-5-yl)-5-hydroxy-7-oxabicyclo[2.2.1]heptane-2-carboxamide], where the note is “Homo sapiens”, the pEC50 was 4.52 and the Emax is 183%.

Turning to `O=C(Nc1cccc(C(F)(F)F)c1)[C@@H]1[C@@H]2O[C@@H]([C@H]3C[C@H]32)[C@@H]1c1ccncc1` [Example 38, (1S,2S,4R,5R,6S,7S)-7-(pyridin-4-yl)-N-(3-(trifluoromethyl)phenyl)-8-oxatricyclo[3.2.1.0^2,4]octane-6-carboxamide], where the note is “Homo sapiens”, the pEC50 is 5.00 and the Emax came to 36%.

With `O=C(Nc1ccc(Cl)c(Cl)c1)[C@H]1[C@@H]2O[C@@H]([C@H]3C[C@H]32)[C@@H]1c1cncnc1` (single isomer, unassigned) [Example 126a], where the note is “Homo sapiens”, the pEC50 was 5.27 and the Emax was 233%.

As to `Cc1cc([C@H]2[C@H]3O[C@H]([C@H](O)[C@@H]3O)[C@@H]2C(=O)Nc2cccc(C(F)(F)F)c2)ccn1` [Example 158, (1S,2R,3S,4R,5S,6R)-5,6-dihydroxy-3-(2-methylpyridin-4-yl)-N-(3-(trifluoromethyl)phenyl)-7-oxabicyclo[2.2.1]heptane-2-carboxamide], where the note is “Homo sapiens”, the pEC50 was less than 4.30 and the Emax stood at 31%.

Consider `O=C(Nc1cccc(C(F)(F)F)c1)[C@@H]1[C@@H]2O[C@@H]([C@H]3C[C@H]32)[C@@H]1c1ccnc(F)c1` [Example 41, (1S,2S,4R,5R,6S,7S)-7-(2-fluoropyridin-4-yl)-N-(3-(trifluoromethyl)phenyl)-8-oxatricyclo[3.2.1.0^2,4]octane-6-carboxamide], for which, where the note is “Homo sapiens”, the pEC50 is 4.62 and the Emax is 121%.

With `Cc1ccc([C@H]2[C@H]3O[C@H](C[C@@H]3F)[C@@H]2C(=O)Nc2ccc(Cl)c(Cl)c2)cn1` [Example 115, (1R,2R,3S,4R,5S)—N-(3,4-dichlorophenyl)-5-fluoro-3-(6-methylpyridin-3-yl)-7-oxabicyclo[2.2.1]heptane-2-carboxamide], where the note is “Homo sapiens”, the negative logarithm of the EC50 (pEC50) was 4.48 and the Emax came out at 49%.

With `Nc1ncc([C@H]2[C@H]3O[C@H]([C@@H]4C[C@@H]43)[C@@H]2C(=O)Nc2ccc(Cl)c(Cl)c2)cn1` [Example 132, (1S,2S,4R,5R,6R,7S)-7-(2-aminopyrimidin-5-yl)-N-(3,4-dichlorophenyl)-8-oxatricyclo[3.2.1.0^2,4]octane-6-carboxamide], where the note is “Homo sapiens”, the pEC50 was 4.74 and the Emax was determined as 321%.

With `O=C(Nc1ccc(Cl)c(Cl)c1)[C@H]1[C@@H]2O[C@@H]([C@H]3C[C@H]32)[C@@H]1c1cncnc1` (racemic) [Example 126, rac-(1S,2S,4R,5R,6R,7S)—N-(3,4-dichlorophenyl)-7-(pyrimidin-5-yl)-8-oxatricyclo[3.2.1.0^2,4]octane-6-carboxamide], where the note is “Homo sapiens”, the pEC50 was 5.00 and the Emax worked out at 212%.

Consider `Cc1nccc([C@H]2[C@H]3O[C@H](C[C@@H]3O)[C@@H]2C(=O)Nc2ccc(Cl)c(Cl)c2)n1` [Example 82, (1R,2R,3S,4R,5S)—N-(3,4-dichlorophenyl)-5-hydroxy-3-(2-methylpyrimidin-4-yl)-7-oxabicyclo[2.2.1]heptane-2-carboxamide], for which, where the note is “Homo sapiens”, the pEC50 is less than 4.30 and the Emax amounted to 74%.

For the molecule `O=C(Nc1ccc(Cl)c(Cl)c1)[C@H]1[C@@H]2O[C@@H]([C@H]3C[C@H]32)[C@@H]1c1ccnc(F)c1F` (racemic) [Example 122, rac-(1S,2S,4R,5R,6R,7S)—N-(3,4-dichlorophenyl)-7-(2,3-difluoropyridin-4-yl)-8-oxatricyclo[3.2.1.0^2,4]octane-6-carboxamide], for the setting “Homo sapiens”, the pEC50 was 5.30 and the Emax amounted to 32%.

As to `Cc1cc([C@H]2[C@H](C(=O)Nc3ccc(Cl)c(Cl)c3)[C@@H]3C[C@](C)(O)[C@H]2O3)ccn1` [Example 179, (1S,2S,3R,4S,5S)—N-(3,4-dichlorophenyl)-5-hydroxy-5-methyl-3-(2-methylpyridin-4-yl)-7-oxabicyclo[2.2.1]heptane-2-carboxamide], where the note is “Homo sapiens”, the pEC50 is less than 4.30 and the Emax worked out at 22%.

In the case of `O=C(Nc1ccc(Cl)c(Cl)c1)[C@@H]1[C@@H]2O[C@@H]([C@H]3C[C@H]32)[C@@H]1c1ccnc(F)c1F` (single isomer, unassigned) [Example 29], for the setting “Homo sapiens”, the pEC50 was less than 4.30 and the Emax was determined as 6%.

Regarding `Cc1cc([C@H]2[C@H]3O[C@H](C[C@@H]3O)[C@@H]2C(=O)Nc2cc(Cl)c(Cl)cn2)ccn1` [Example 80, (1R,2R,3S,4R,5S)—N-(4,5-dichloropyridin-2-yl)-5-hydroxy-3-(2-methylpyridin-4-yl)-7-oxabicyclo[2.2.1]heptane-2-carboxamide], for the setting “Homo sapiens”, the pEC50 is less than 4.30 and the Emax is 32%.

Regarding `Cc1cc([C@@H]2[C@@H](C(=O)Nc3cccc(C(F)(F)F)c3)[C@@H]3O[C@H]2C[C@H]3F)ccn1` [Example 108, (1S,2R,3S,4S,6R)-6-fluoro-3-(2-methylpyridin-4-yl)-N-(3-(trifluoromethyl)phenyl)-7-oxabicyclo[2.2.1]heptane-2-carboxamide], where the note is “Homo sapiens”, the pEC50 is 4.57 and the Emax was found to be 137%.

For `O=C(Nc1cnc(Cl)c(Cl)c1)[C@@H]1[C@@H](c2ccncc2)[C@H]2O[C@@H]1C[C@@H]2O` [Example 87, (1R,2R,3S,4R,5S)—N-(5,6-dichloropyridin-3-yl)-5-hydroxy-3-(pyridin-4-yl)-7-oxabicyclo[2.2.1]heptane-2-carboxamide], where the note is “Homo sapiens”, the pEC50 is less than 4.30 and the Emax was found to be 14%.

On to `O=C(Nc1cnc(Cl)c(Cl)c1)[C@@H]1[C@@H]2O[C@@H]([C@H]3C[C@H]32)[C@@H]1c1ccncc1` [Example 43a, (1S,2S,4R,5R,6S,7S)—N-(5,6-dichloropyridin-3-yl)-7-(pyridin-4-yl)-8-oxatricyclo[3.2.1.0^24]octane-6-carboxamide], for which the “(A) % Efficacy” value was 0% and the pEC50 was less than 4.30.

On to `CN(C)c1ncc([C@H]2[C@H]3O[C@H](C[C@@H]3O)[C@H]2C(=O)Nc2ccc(Cl)c(Cl)c2)cn1` [Example 55, (1R,2S,3S,4R,5S)—N-(3,4-dichlorophenyl)-3-(2-(dimethylamino)pyrimidin-5-yl)-5-hydroxy-7-oxabicyclo[2.2.1]heptane-2-carboxamide], for which, for the setting “Homo sapiens”, the pEC50 is less than 4.30 and the Emax stood at 0%.

In the case of `O=C(Nc1ccc(Cl)c(Cl)c1)[C@H]1[C@@H](c2ccnc(F)c2)[C@H]2O[C@@H]1C[C@@H]2O` (racemic) [Example 52, rac-(1R,2S,3S,4R,5S)—N-(3,4-dichlorophenyl)-3-(2-fluoropyridin-4-yl)-5-hydroxy-7-oxabicyclo[2.2.1]heptane-2-carboxamide], under “Homo sapiens”, the pEC50 was less than 4.30 and the Emax was 4%.

In the case of `Cc1cc([C@H]2[C@H]3O[C@H]([C@@H]4C[C@@H]43)[C@@H]2C(=O)Nc2ccc(OC(F)(F)F)c(F)c2)ccn1` [Example 71, (1S,2S,4R,5R,6R,7S)—N-(3-fluoro-4-(trifluoromethoxy)phenyl)-7-(2-methylpyridin-4-yl)-8-oxatricyclo[3.2.1.0^2,4]octane-6-carboxamide], where the note is “Homo sapiens”, the pEC50 is 5.21 and the Emax came out at 250%.

Take `O=C(Nc1ccc(Cl)c(Cl)c1)[C@H]1[C@H]2O[C@H]([C@@H]3C[C@@H]32)[C@H]1c1ccnc(F)c1F` (single isomer, unassigned) [Example 30]: for the setting “Homo sapiens”, the pEC50 is 5.00 and the Emax is 133%.

Take `O=C(Nc1ccc(Cl)c(Cl)c1)[C@H]1[C@H](c2ccnc(F)c2)[C@@H]2O[C@H]1C[C@H]2O` [Example 142b, (1S,2S,3R,4S,5R)-N-(3,4-dichlorophenyl)-3-(2-fluoropyridin-4-yl)-5-hydroxy-7-oxabicyclo[2.2.1]heptane-2-carboxamide]: under “Homo sapiens”, the pEC50 is 6.10 and the Emax worked out at 54%.

As to `Cc1ccc([C@H]2[C@H]3O[C@H](C[C@H]3F)[C@@H]2C(=O)Nc2ccc(Cl)c(Cl)c2)cn1` [Example 164, (1R,2R,3S,4R,5R)—N-(3,4-dichlorophenyl)-5-fluoro-3-(6-methylpyridin-3-yl)-7-oxabicyclo[2.2.1]heptane-2-carboxamide], for the setting “Homo sapiens”, the pEC50 is less than 4.30 and the Emax is 0%.
